IC50 data for 25 molecules are collected here from patent US20090227575A1, “7H-PYRROLO[2,3-H]QUINAZOLINE COMPOUNDS, THEIR USE AS mTOR KINASE AND PI3 KINASE INHIBITORS, AND THEIR [sequence]” (Wyeth, priority 2008, published 2009).

Common to all, as to format: biochemical
The target in one assay is Human mTOR (Homo sapiens, UniProt P42345). Nature of the assay: mTOR kinase assay (DELFIA format, purified enzyme). The arrangement: FLAG. The conditions noted are these: read-out: TOR Kinase IC50.
The target of the next assay is PI3K-gamma (Homo sapiens, UniProt P48736). Nature of the assay: PI3K-gamma fluorescence polarization assay. Particulars: read-out: PI3 Kinase γ IC50. As for the experimental part: (§1) The reaction buffer was 20 mM HEPES, pH 7.5, 2 mM MgCl2, 0.05% CHAPS; and 0.01% βME (added fresh). The Stop/Detection Buffer was 100 mM HEPES, pH 7.5, 4 mM EDTA, 0.05% CHAPS; ATP 20 mM in water; PIP2 (diC8, Echelon, Salt Lake City Utah cat #P-4508) 1 mM in water (MW=856.5). The GST-GRP was 1.75 mg/mL or 1.4 mg/mL in 10% glycerol. The Red detector (TAMRA) was 2.5 μM. Nunc 384-well black polypropylene fluorescent plates were used for PI3K assays.
(§2) The assay is run by placing 5 μL of diluted enzyme per well, then 5 μL of diluted compound (or 9.5 μL enzyme then 0.5 μL compound in DMSO) is added and mixed. Then, 10 μL substrate is added to start the reaction. The samples are incubated 30-60 minutes, then the reaction is stopped by adding 20 μL stop/detector mix. PI3K is diluted with reaction buffer (e.g., 5 μL or 7.5 μL PI3K into 620 μL reaction buffer), and 5 μL of diluted enzyme is used per well. A 5 μL portion of reaction buffer or of drug diluted in buffer (e.g., 4 μL/100 so final DMSO is 1% in reaction) is added to each. Pipetting up and down mixes the samples. Alternatively, the enzyme can be diluted to 1215 μL. In this case 9.8 μL is added per well and 0.2 μL compound is added in DMSO.
(§3) To prepare 1 mL of substrate solution, 955 μL reaction buffer, 40 μL PIP2, and 2.5 μL ATP are mixed. 10 μL of substrate is added to each well to start the reaction. […] The stop/detector mix is prepared by mixing 4 μL Red detector and 1.6 μL or 2.0 μL GST-GRP with 1 mL stop buffer, which results in 10 nM probe and 70 nM GST-GRP. 20 μL of the stop/detector mix is added to each well to stop the reaction. The plates are read after 30-90 minutes keeping the red probe solutions dark. For the zero time point, stop/detector mix is added to the enzyme just before adding substrate. For an extra control, stop/detector mix is added to buffer (no enzyme) and substrate or to just buffer (no substrate). […] The recommended reaction has 0.06 μL per 20 μL (0.015 μg/20 μL) or 0.01125 μg/15 μL or 0.75 μg/mL.
(§4) Plates are read on machines with filters for TAMRA. The units are mP with no enzyme controls reading app 190-220 mP units. Fully active enzyme reduces fluorescence polarization down to 70-100 mP after 30 minutes. An active compound raises the mP values halfway to control or to 120-150 mP units.
A general note: In fluorescence polarisation assays a small probe gives low polarisation when free and higher when bound to something large.

A further assay deals with PI3K-alpha (Homo sapiens, UniProt P42336). The assay can be described thus: PI3K-alpha fluorescence polarization assay. Particulars: read-out: PI3 Kinase α IC50. How it is done:
as §1, §2, §3, §4

Chain of PI3K-gamma (P48736 whole entry, species assumed): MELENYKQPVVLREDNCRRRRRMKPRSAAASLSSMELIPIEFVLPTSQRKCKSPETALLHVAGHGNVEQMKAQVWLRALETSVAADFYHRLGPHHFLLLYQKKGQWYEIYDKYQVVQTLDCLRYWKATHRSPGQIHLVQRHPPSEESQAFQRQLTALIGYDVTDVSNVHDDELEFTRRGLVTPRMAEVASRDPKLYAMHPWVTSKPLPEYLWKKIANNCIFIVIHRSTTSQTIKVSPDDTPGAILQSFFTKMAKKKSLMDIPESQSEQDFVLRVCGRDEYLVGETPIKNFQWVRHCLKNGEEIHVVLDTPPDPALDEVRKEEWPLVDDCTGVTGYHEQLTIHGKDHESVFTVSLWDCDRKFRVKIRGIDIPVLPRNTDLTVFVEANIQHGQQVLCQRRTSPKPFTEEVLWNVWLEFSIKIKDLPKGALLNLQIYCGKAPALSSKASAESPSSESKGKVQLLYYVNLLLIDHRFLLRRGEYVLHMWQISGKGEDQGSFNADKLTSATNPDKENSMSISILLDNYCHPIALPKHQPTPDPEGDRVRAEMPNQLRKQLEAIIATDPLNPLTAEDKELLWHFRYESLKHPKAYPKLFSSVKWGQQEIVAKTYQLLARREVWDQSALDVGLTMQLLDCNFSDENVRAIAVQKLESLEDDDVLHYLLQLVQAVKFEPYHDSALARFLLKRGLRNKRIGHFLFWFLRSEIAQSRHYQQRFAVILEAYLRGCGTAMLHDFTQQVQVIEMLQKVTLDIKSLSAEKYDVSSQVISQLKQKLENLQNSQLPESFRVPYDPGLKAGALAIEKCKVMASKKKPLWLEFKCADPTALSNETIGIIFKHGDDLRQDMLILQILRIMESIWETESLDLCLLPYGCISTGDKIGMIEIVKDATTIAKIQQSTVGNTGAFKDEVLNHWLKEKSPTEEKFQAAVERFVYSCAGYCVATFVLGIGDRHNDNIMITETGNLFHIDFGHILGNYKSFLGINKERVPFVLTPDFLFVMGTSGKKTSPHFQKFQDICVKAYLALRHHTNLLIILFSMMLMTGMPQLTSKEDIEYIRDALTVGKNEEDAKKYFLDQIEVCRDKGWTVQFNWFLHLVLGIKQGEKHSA
Chain of PI3K-alpha (P42336 whole entry, species assumed): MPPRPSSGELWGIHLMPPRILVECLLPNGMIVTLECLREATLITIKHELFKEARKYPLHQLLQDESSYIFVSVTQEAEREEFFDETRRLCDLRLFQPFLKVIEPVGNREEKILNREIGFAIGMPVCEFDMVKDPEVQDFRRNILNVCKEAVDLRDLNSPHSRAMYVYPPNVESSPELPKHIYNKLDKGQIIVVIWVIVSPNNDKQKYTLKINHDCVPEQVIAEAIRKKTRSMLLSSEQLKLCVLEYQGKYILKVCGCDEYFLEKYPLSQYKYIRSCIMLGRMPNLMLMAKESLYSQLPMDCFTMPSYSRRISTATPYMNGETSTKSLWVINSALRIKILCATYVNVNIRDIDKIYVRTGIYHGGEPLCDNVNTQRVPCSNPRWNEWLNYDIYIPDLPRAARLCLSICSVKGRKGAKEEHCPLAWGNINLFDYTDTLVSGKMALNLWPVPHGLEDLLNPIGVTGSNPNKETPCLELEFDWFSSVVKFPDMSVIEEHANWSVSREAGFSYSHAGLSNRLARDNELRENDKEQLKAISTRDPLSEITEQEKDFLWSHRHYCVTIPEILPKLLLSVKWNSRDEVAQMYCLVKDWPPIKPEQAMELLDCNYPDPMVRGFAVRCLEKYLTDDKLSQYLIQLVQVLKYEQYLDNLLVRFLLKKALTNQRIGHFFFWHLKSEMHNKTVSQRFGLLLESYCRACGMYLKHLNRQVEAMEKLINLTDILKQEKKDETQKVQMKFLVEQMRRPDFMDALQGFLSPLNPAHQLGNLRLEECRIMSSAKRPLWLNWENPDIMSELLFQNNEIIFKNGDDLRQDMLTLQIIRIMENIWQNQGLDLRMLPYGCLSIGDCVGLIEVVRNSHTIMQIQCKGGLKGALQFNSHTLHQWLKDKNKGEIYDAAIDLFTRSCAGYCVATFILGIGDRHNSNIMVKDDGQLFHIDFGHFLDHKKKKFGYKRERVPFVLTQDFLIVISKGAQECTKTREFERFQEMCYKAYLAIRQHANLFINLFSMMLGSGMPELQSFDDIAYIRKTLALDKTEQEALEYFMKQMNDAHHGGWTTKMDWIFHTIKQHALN
Chain of PI3K-alpha (P27986 whole entry partner, species assumed): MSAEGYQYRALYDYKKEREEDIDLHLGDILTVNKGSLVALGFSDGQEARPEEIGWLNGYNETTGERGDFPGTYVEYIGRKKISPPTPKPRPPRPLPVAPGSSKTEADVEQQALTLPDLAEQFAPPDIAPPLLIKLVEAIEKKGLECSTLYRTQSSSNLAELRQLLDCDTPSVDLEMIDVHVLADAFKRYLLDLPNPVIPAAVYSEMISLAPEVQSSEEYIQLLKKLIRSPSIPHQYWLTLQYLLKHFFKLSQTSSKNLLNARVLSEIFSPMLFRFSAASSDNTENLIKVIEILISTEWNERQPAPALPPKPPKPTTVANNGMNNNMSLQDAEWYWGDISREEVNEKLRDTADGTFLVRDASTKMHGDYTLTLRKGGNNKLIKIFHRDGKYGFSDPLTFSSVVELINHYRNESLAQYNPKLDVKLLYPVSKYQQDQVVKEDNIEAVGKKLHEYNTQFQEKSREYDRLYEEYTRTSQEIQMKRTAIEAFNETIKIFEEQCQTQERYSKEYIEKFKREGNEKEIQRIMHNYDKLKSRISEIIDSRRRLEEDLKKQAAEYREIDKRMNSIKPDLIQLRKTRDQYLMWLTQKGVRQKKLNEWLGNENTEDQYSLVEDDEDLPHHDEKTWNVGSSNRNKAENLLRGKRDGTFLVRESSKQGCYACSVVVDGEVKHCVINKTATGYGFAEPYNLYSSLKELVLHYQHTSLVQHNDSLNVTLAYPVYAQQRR

As for `Cn1ccc2c3nc(-c4ccc(NC(=O)c5ccc(F)cc5)cc4)nc(N4CCOCC4)c3ccc21` [Example 19, 4-fluoro-N-[4-(7-methyl-4-morpholin-4-yl-7H-pyrrolo[2,3-h]quinazolin-2-yl)phenyl]benzamide], the half-maximal inhibitory concentration (IC50) on Human mTOR was 1250 nM; on PI3K-gamma, 6170 nM; at PI3K-alpha it was 12000 nM.
For the molecule `Cn1ccc2c3nc(-c4cncc(O)c4)nc(N4CCOCC4)c3ccc21` [Example 78, 5-(7-methyl-4-morpholin-4-yl-7H-pyrrolo[2,3-h]quinazolin-2-yl)pyridin-3-ol], the figures for the IC50 at Human mTOR, at PI3K-gamma and on PI3K-alpha were 305 nM, 390 nM and 73 nM, respectively.
With `Cn1ccc2c3nc(-c4ccc(NC(=O)Nc5cccc(Cl)c5)cc4)nc(N4CCOCC4)c3ccc21` [Example 13, 1-(3-chlorophenyl)-3-[4-(7-methyl-4-morpholin-4-yl-7H-pyrrolo[2,3-h]quinazolin-2-yl)phenyl]urea], the IC50 at Human mTOR was found to be 260 nM; at PI3K-gamma, 234 nM; on PI3K-alpha, 62 nM.
For `Cn1ccc2c3nc(-c4cccc(O)c4)nc(N4CCOCC4)c3ccc21` [Example 35, 3-(7-methyl-4-morpholin-4-yl-7H-pyrrolo[2,3-h]quinazolin-2-yl)phenol], the IC50 is 410 nM on Human mTOR, 2230 nM at PI3K-gamma and 174 nM at PI3K-alpha.
In the case of `CCN1CCC(S(=O)(=O)n2ccc3c4nc(-c5ccc(NC(=O)Nc6ccncc6)cc5)nc(N5CCOCC5)c4ccc32)CC1` [Example 64, 1-(4-{7-[(1-ethylpiperidin-4-yl)sulfonyl]-4-morpholin-4-yl-7H-pyrrolo[2,3-h]quinazolin-2-yl}phenyl)-3-pyridin-4-ylurea], the half-inhibitory concentration (IC50) at Human mTOR is 44 nM; at PI3K-gamma, 313 nM; on PI3K-alpha it was 74 nM.
On to `c1cc(-c2nc(N3CCOCC3)c3ccc4[nH]ccc4c3n2)c2cn[nH]c2c1` [Example 80, 2-(1H-indazol-4-yl)-4-morpholin-4-yl-7H-pyrrolo[2,3-h]quinazoline], for which the IC50 is 2080 nM at Human mTOR, more than 10000 nM on PI3K-gamma and 10300 nM on PI3K-alpha.
For `Cn1ccc2c3nc(-c4ccc(NC(=O)c5cccnc5)cc4)nc(N4CCOCC4)c3ccc21` [Example 17, N-[4-(7-methyl-4-morpholin-4-yl-7H-pyrrolo[2,3-h]quinazolin-2-yl)phenyl]nicotinamide], the IC50 was 1400 nM on Human mTOR, 9850 nM on PI3K-gamma and more than 10000 nM at PI3K-alpha.
In the case of `Cn1ccc2c3nc(-c4cnc(N)nc4)nc(N4CCOCC4)c3ccc21` [Example 43, 5-(7-methyl-4-morpholin-4-yl-7H-pyrrolo[2,3-h]quinazolin-2-yl)pyrimidin-2-amine], the results for the IC50 on Human mTOR, at PI3K-gamma and on PI3K-alpha were 247 nM, 426 nM and 48 nM, respectively.
In the case of `COc1ncc(-c2nc(N3CCOCC3)c3ccc4c(ccn4C)c3n2)cn1` [Example 50, 2-(2-methoxypyrimidin-5-yl)-7-methyl-4-morpholin-4-yl-7H-pyrrolo[2,3-h]quinazoline], the IC50 was 2350 nM at Human mTOR, more than 10000 nM on PI3K-gamma and 668 nM at PI3K-alpha.
`Cn1ccc2c3nc(-c4ccc(N)nc4)nc(N4CCOCC4)c3ccc21` [Example 42, 5-(7-methyl-4-morpholin-4-yl-7H-pyrrolo[2,3-h]quinazolin-2-yl)pyridin-2-amine]: the IC50 on Human mTOR amounted to 630 nM; at PI3K-gamma, 3590 nM; at PI3K-alpha, 616 nM.
For `Cn1ccc2c3nc(-c4ccc(NC(=O)Nc5ccccc5)cc4)nc(N4CCOCC4)c3ccc21` [Example 10, 1-[4-(7-methyl-4-morpholin-4-yl-7H-pyrrolo[2,3-h]quinazolin-2-yl)phenyl]-3-phenylurea], the 50% inhibitory concentration (IC50) at Human mTOR worked out at 21 nM; on PI3K-gamma, 247 nM; on PI3K-alpha, 71 nM.
Take `COCOc1cncc(-c2nc(N3CCOCC3)c3ccc4c(ccn4C)c3n2)c1` [Example 77, 2-[5-(methoxymethoxy)pyridin-3-yl]-7-methyl-4-morpholin-4-yl-7H-pyrrolo[2,3-h]quinazoline]: the IC50 came out at 525 nM at Human mTOR, 933 nM on PI3K-gamma and 451 nM at PI3K-alpha.
`Cn1ccc2c3nc(-c4ccc(C(=O)O)cc4)nc(N4CCOCC4)c3ccc21` [Example 38, 4-(7-methyl-4-morpholin-4-yl-7H-pyrrolo[2,3-h]quinazolin-2-yl)benzoic acid]: the IC50 on Human mTOR is 4000 nM.
Consider `CS(=O)(=O)n1ccc2c3nc(-c4cncc(O)c4)nc(N4CCOCC4)c3ccc21` [Example 76, 5-[7-(methylsulfonyl)-4-morpholin-4-yl-7H-pyrrolo[2,3-h]quinazolin-2-yl]pyridin-3-ol], for which the figures for the IC50 at Human mTOR, on PI3K-gamma and at PI3K-alpha were 130 nM, 82 nM and 65 nM, respectively.
For the molecule “3-(7-methyl-4-morpholin-4-yl-7H-pyrrolo[2,3-h]quinazolin-2-yl)aniline [Example 41]”, the IC50 is 1450 nM on Human mTOR, more than 10000 nM on PI3K-gamma and more than 10000 nM on PI3K-alpha.
`O=C(Nc1ccncc1)Nc1ccc(-c2nc(N3CCOCC3)c3ccc4c(ccn4S(=O)(=O)C4CCNCC4)c3n2)cc1` [Example 62, 1-{4-[4-morpholin-4-yl-7-(piperidin-4-ylsulfonyl)-7H-pyrrolo[2,3-h]quinazolin-2-yl]phenyl}-3-pyridin-4-ylurea]: the IC50 worked out at 28 nM on Human mTOR, 519 nM at PI3K-gamma and 114 nM on PI3K-alpha.
`Cn1ccc2c3nc(-c4cccc(C(N)=O)c4)nc(N4CCOCC4)c3ccc21` [Example 39, 3-(7-methyl-4-morpholin-4-yl-7H-pyrrolo[2,3-h]quinazolin-2-yl)benzamide]: at Human mTOR, the IC50 is 1720 nM.
With `Cn1ccc2c3nc(-c4ccc(NS(C)(=O)=O)cc4)nc(N4CCOCC4)c3ccc21` [Example 21, N-[4-(7-methyl-4-morpholin-4-yl-7H-pyrrolo[2,3-h]quinazolin-2-yl)phenyl]methanesulfonamide], the results for the IC50 at PI3K-gamma and at PI3K-alpha were more than 10000 nM and 7830 nM, respectively.
`CN(C)CCCNC(=O)Nc1ccc(-c2nc(N3CCOCC3)c3ccc4c(ccn4C)c3n2)cc1` [Example 5, 1-[3-(dimethylamino)propyl]-3-[4-(7-methyl-4-morpholin-4-yl-7H-pyrrolo[2,3-h]quinazolin-2-yl)phenyl]urea]: the IC50 at Human mTOR worked out at 2050 nM; at PI3K-alpha it was 2700 nM.
Consider `CCCNC(=O)Nc1ccc(-c2nc(N3CCOCC3)c3ccc4c(ccn4C)c3n2)cc1` [Example 54, 1-[4-(7-methyl-4-morpholin-4-yl-7H-pyrrolo[2,3-h]quinazolin-2-yl)phenyl]-3-propylurea], for which the IC50 on Human mTOR worked out at 21 nM.
Turning to `Cn1ccc2c3nc(-c4cccc(C#N)c4)nc(N4CCOCC4)c3ccc21` [Example 40, 3-(7-methyl-4-morpholin-4-yl-7H-pyrrolo[2,3-h]quinazolin-2-yl)benzonitrile], the IC50 at Human mTOR came to 2300 nM.
As to `CN1CCN(C(=O)Nc2ccc(-c3nc(N4CCOCC4)c4ccc5c(ccn5C)c4n3)cc2)CC1` [Example 6, 4-methyl-N-[4-(7-methyl-4-morpholin-4-yl-7H-pyrrolo[2,3-h]quinazolin-2-yl)phenyl]piperazine-1-carboxamide], the IC50 at Human mTOR turned out to be 2550 nM; on PI3K-alpha, 7630 nM.
For `Cn1ccc2c3nc(-c4ccc(N)cc4)nc(N4CCOCC4)c3ccc21` [Example 1, 4-(7-methyl-4-morpholin-4-yl-7H-pyrrolo[2,3-h]quinazolin-2-yl)aniline] the same measures were 805 nM and 6480 nM.
For the molecule `Cn1ccc2c3nc(-c4cnc(O)nc4)nc(N4CCOCC4)c3ccc21` [Example 51, 5-(7-methyl-4-morpholin-4-yl-7H-pyrrolo[2,3-h]quinazolin-2-yl)pyrimidin-2-ol], the half-inhibitory concentration (IC50) at PI3K-gamma and at PI3K-alpha was more than 10000 nM throughout.
Turning to `Cn1ccc2c3nc(-c4cccc(F)c4)nc(N4CCOCC4)c3ccc21` [Example 52, 2-(3-fluorophenyl)-7-methyl-4-morpholin-4-yl-7H-pyrrolo[2,3-h]quinazoline], the IC50 on PI3K-gamma turned out to be 3660 nM; on PI3K-alpha, 8880 nM.

Usually IC50 stands for the concentration at which inhibition is half-maximal.
